ChEMBL document CHEMBL5338793, “Discovery of Pyrimidinediamine Derivatives as Potent Methuosis Inducers for the Treatment of Triple-Negative Breast Cancer” (J Med Chem, 2023)
Activity calls are given as the source filed them. The calls are words filed in the database; no cut-off is given here.

What was measured:
[1] = tested on: HCC1806; assay: Induction of morphological changes in human HCC1806 cells assessed as intracellular vacuolization at 1.5 uM pretreated with Baf-A1 followed by compound addition measured after 24 hrs by microscopic analysis; format: functional, cell-based
[2] = tested on: MDA-MB-468; assay: Induction of morphological changes in human MDA-MB-468 cells assessed as intracellular vacuolization at 1 uM incubated for 24 hrs by microscopic analysis; format: functional, cell-based
[3] = Toxicity in mouse xenografted with human HCC1806 cells assessed as effect on ALT level at 2.5 to 5 mg/kg, ip administered every 2 days for 15 days; format: organism-based; details: in vivo, 360 h, dose 2.5-5 mg/kg, time 15 day
[4] = Toxicity in mouse xenografted with human HCC1806 cells assessed as effect on AST level at 2.5 to 5 mg/kg, ip administered every 2 days for 15 days; format: organism-based; details: in vivo, 360 h, dose 2.5-5 mg/kg, time 15 day
[5] = tested on: MDA-MB-468; assay: Antiproliferative activity against human MDA-MB-468 cells assessed as inhibition of cell proliferation at 1 uM measured after 24 hrs in presence of 3-MA by SRB assay; format: functional, cell-based
[6] = tested on: MDA-MB-468; assay: Induction of morphological changes in human MDA-MB-468 cells assessed as intracellular vacuolization at 1 uM pretreated with Z-VAD-FMK followed by compound addition measured after 24 hrs by microscopic analysis; format: functional, cell-based
[7] = tested on: MDA-MB-468; assay: Induction of morphological changes in human MDA-MB-468 cells assessed as intracellular vacuolization at 1.5 uM pretreated with Baf-A1 followed by compound addition measured after 24 hrs by microscopic analysis; format: functional, cell-based
[8] = Toxicity in mouse xenografted with human HCC1806 cells assessed as body weight change at 2.5 to 5 mg/kg, ip administered every 2 days for 15 days; format: organism-based; details: in vivo, 360 h, dose 2.5-5 mg/kg, time 15 day
[9] = tested on: HCC1806; assay: Antitumor activity against human HCC1806 cells xenografted in mouse assessed as tumor growth inhibition at 2.5 to 5 mg/kg, ip administered every 2 days for 15 days; format: functional, organism-based; details: dose 2.5-5 mg/kg, time 15.0 day
[10] = tested on: HCC1806; assay: Antiproliferative activity against human HCC1806 cells assessed as inhibition of cell proliferation incubated for 24 hrs by SRB assay; format: functional, cell-based; details: HCC1806, 24 h
[11] = tested on: 184B5; assay: Cytotoxicity against human 184B5 cells assessed as reduction in cell viability at 2 uM incubated for 24 hrs by SRB assay; format: toxicity, cell-based; details: 184b5, 24 h
[12] = tested on: HCC1806; assay: Upregulation of Rab7 level in human HCC1806 cells incubated for 24 hrs by Western blot analysis; format: functional, cell-based; details: dose <= 1.5 µM
[13] = tested on: 184B5; assay: Induction of morphological changes in human 184B5 cells assessed as intracellular vacuolization upto 2 uM incubated for 24 hrs by microscopic analysis; format: toxicity, cell-based; details: 184b5, 24 h
[14] = Toxicity in mouse xenografted with human HCC1806 cells assessed as effect on CR level at 2.5 to 5 mg/kg, ip administered every 2 days for 15 days; format: organism-based; details: in vivo, 360 h, dose 2.5-5 mg/kg, time 15 day
[15] = tested on: MDA-MB-468; assay: Antiproliferative activity against human MDA-MB-468 cells assessed as inhibition of cell proliferation incubated for 24 hrs by SRB assay; format: functional, cell-based; details: MDA-MB-468, 24 h
[16] = tested on: MDA-MB-468; assay: Upregulation of Lamp1 level in human MDA-MB-468 cells incubated for 24 hrs by Western blot analysis; format: functional, cell-based; details: dose <= 1.5 µM
[17] = tested on: HCC1806; assay: Induction of morphological changes in human HCC1806 cells assessed as intracellular vacuolization at 1 uM measured after 24 hrs in presence of 3-MA by microscopic analysis; format: functional, cell-based
[18] = tested on: HCC1806; assay: Induction of macropinocytosis in human HCC1806 cells at 1.5 uM incubated for 24 hrs by LY staining based live cell imaging analysis; format: functional
[19] = tested on: HCC1806; assay: Induction of morphological changes in human HCC1806 cells assessed as intracellular vacuolization incubated for 24 hrs by microscopic analysis; format: functional, cell-based; details: dose 0.5-1.5 µM
[20] = tested on: HCC1806; assay: Induction of morphological changes in human HCC1806 cells assessed as intracellular vacuolization at 1.5 uM measured after 12 to 24 hrs by microscopic analysis; format: functional, cell-based; details: time 12-24 hrs
[21] = tested on: HCC1806; assay: Upregulation of Lamp1 level in human HCC1806 cells at 1.5 uM incubated for 24 hrs by immunofluorescence microscopy; format: functional, cell-based
[22] = tested on: HCC1806; assay: Induction of morphological changes in human HCC1806 cells assessed as intracellular vacuolization at 1 uM pretreated with Z-VAD-FMK followed by compound addition measured after 24 hrs by microscopic analysis; format: functional, cell-based
[23] = tested on: HCC1806; assay: Antiproliferative activity against human HCC1806 cells assessed as inhibition of cell proliferation at 1 uM measured after 24 hrs in presence of 3-MA by SRB assay; format: functional, cell-based
[24] = tested on: HCC1806; assay: Upregulation of Rab7 level in human HCC1806 cells at 1.5 uM incubated for 24 hrs by immunofluorescence microscopy; format: functional, cell-based
[25] = tested on: HCC1806; assay: Induction of morphological changes in human HCC1806 cells assessed as rate of intracellular vacuolization at 1 uM incubated for 24 hrs by microscopic analysis relative to control; format: functional
[26] = tested on: HCC1806; assay: Antiproliferative activity against human HCC1806 cells assessed as inhibition of cell proliferation at 1 uM incubated for 24 hrs by SRB assay relative to control; format: functional
[27] = Toxicity in mouse xenografted with human HCC1806 cells assessed as drug tolerance at 2.5 to 5 mg/kg, ip administered every 2 days for 15 days; format: organism-based; details: in vivo, 360 h, dose 2.5-5 mg/kg, time 15 day
[28] = tested on: MDA-MB-468; assay: Induction of morphological changes in human MDA-MB-468 cells assessed as intracellular vacuolization at 0.5 uM incubated for 24 hrs by microscopic analysis; format: functional, cell-based
[29] = tested on: HCC1806; assay: Antiproliferative activity against human HCC1806 cells assessed as inhibition of cell proliferation at 2 uM incubated for 24 hrs by SRB assay relative to control; format: functional
[30] = tested on: MDA-MB-468; assay: Upregulation of Rab7 level in human MDA-MB-468 cells at 1.5 uM incubated for 24 hrs by immunofluorescence microscopy; format: functional, cell-based
[31] = tested on: HCC1937; assay: Antiproliferative activity against human HCC1937 cells assessed as inhibition of cell proliferation incubated for 24 hrs by SRB assay; format: functional, cell-based; details: HCC1937, 24 h
[32] = tested on: HCC1806; assay: Antiproliferative activity against human HCC1806 cells assessed as inhibition of cell proliferation at 1 uM pretreated with Z-VAD-FMK followed by compound addition measured after 24 hrs by SRB assay; format: functional, cell-based
[33] = tested on: HCC1806; assay: Antiproliferative activity against human HCC1806 cells assessed as inhibition of cell proliferation at 1.5 uM pretreated with Baf-A1 followed by compound addition measured after 24 hrs by SRB assay; format: functional, cell-based
[34] = tested on: MDA-MB-468; assay: Antiproliferative activity against human MDA-MB-468 cells assessed as inhibition of cell proliferation at 1.5 uM pretreated with Baf-A1 followed by compound addition measured after 24 hrs by SRB assay; format: functional, cell-based
[35] = tested on: HCC1806; assay: Upregulation of p62 level in human HCC1806 cells incubated for 24 hrs by Western blot analysis; format: functional, cell-based; details: dose <= 1.5 µM
[36] = tested on: MDA-MB-468; assay: Induction of morphological changes in human MDA-MB-468 cells assessed as intracellular vacuolization incubated for 24 hrs by microscopic analysis; format: functional, cell-based; details: dose 0.5-1.5 µM
[37] = tested on: HCC1806; assay: Induction of morphological changes in human HCC1806 cells assessed as intracellular vacuolization at 0.5 uM incubated for 24 hrs by microscopic analysis; format: functional, cell-based
[38] = tested on: HCC1806; assay: Upregulation of Lamp1 level in human HCC1806 cells incubated for 24 hrs by Western blot analysis; format: functional, cell-based; details: dose <= 1.5 µM
[39] = tested on: MDA-MB-468; assay: Induction of morphological changes in human MDA-MB-468 cells assessed as intracellular vacuolization at 1 uM measured after 24 hrs in presence of 3-MA by microscopic analysis; format: functional, cell-based
[40] = tested on: MDA-MB-468; assay: Upregulation of Rab7 level in human […] cells incubated for 24 hrs by Western blot analysis; format: functional, cell-based; details: dose <= 1.5 µM
[41] = tested on: HCC1806; assay: Upregulation of LC3-II level in human HCC1806 cells incubated for 24 hrs by Western blot analysis; format: functional, cell-based; details: dose <= 1.5 µM
[42] = tested on: MDA-MB-468; assay: Upregulation of Lamp1 level in human MDA-MB-468 cells at 1.5 uM incubated for 24 hrs by immunofluorescence microscopy; format: functional, cell-based
[43] = tested on: MDA-MB-468; assay: Antiproliferative activity against human MDA-MB-468 cells assessed as inhibition of cell proliferation at 1 uM pretreated with Z-VAD-FMK followed by compound addition measured after 24 hrs by SRB assay; format: functional, cell-based
[44] = tested on: MDA-MB-468; assay: Induction of macropinocytosis in human MDA-MB-468 cells at 1.5 uM incubated for 24 hrs by LY staining based live cell imaging analysis; format: functional

IC50 [10]: 0.7 µM
IC50 [15]: 0.92 µM
IC50 [31]: 1.03 µM
Structure (SMILES): COc1cc(Nc2nc(N3CCNCC3)ncc2SC)ccc1NC(=O)c1cccc(Br)n1
Activity [1]: inactive
Activity [2]: Active
Activity [3]: Non-Toxic
Activity [4]: Non-Toxic
Activity [5]: Active
Activity [6]: Active
Activity [7]: inactive
Activity [8]: Non-Toxic
Activity [9]: Active
Activity [11]: Toxic
Activity [12]: Dose-Dependent Effect
Activity [13]: Non-Toxic
Activity [14]: Non-Toxic
Activity [16]: Dose-Dependent Effect
Activity [17]: Active
Activity [18]: Active
Activity [19]: Dose-Dependent Effect
Activity [20]: Active
Activity [21]: Active
Activity [22]: Active
Activity [23]: Active
Activity [24]: Active
Activity [25]: 78.3%
inhibition at 1 µM [26]: 99.5%
Activity [27]: Non-Toxic
Activity [28]: Active
inhibition at 2 µM [29]: 7.07%
Activity [30]: Active
Activity [32]: Active
Activity [33]: inactive
Activity [34]: inactive
Activity [35]: Dose-Dependent Effect
Activity [36]: Dose-Dependent Effect
Activity [37]: Active
Activity [38]: Dose-Dependent Effect
Activity [39]: Active
Activity [40]: Dose-Dependent Effect
Activity [41]: Dose-Dependent Effect
Activity [42]: Active
Activity [43]: Active
Activity [44]: Active
